Experimental data from patent publication US20230414715A1, “TRAIL COMPOUNDS FOR REDUCING CANCER TREAMENT SIDE EFFECTS” (BROWN UNIVERSITY, priority 2022, published 2023).
“Also recorded” adds a separate entry of the source.

Experiments:
TRAIL-/- mice [1] = experiment: Radiation pneumonitis after whole-thorax x-ray irradiation, H&E of lung, TRAIL-null mice; format: in vivo, mouse; conditions: TRAIL-/- male or female mice, 20 Gy thoracic irradiation, two weeks treatment, FIG. 2A, B
Protocol: (§1) Animal studies were carried out at Brown University facilities with approval from Brown University IACUC. C57B1/6 mice (Taconic), mice with bi-allelic loss of TRAIL Death Receptor-(DR5-/-) in a C57B1/6 background, and mice with bi-allelic loss of TRAIL (TRAIL -/-) in a C57B1/6 background were given a single whole-thorax x-ray (Philips RT250) irradiation dose of 20 Gy with shielding of other organs. 8-15-week-old male and female mice of each genotype were used. […] Treatment was continued for two weeks, where TLY012 was administered twice a week and ONC201 was administered once a week. For each genetic background, two mice received a control PO, two mice received TLY012 IP, and two mice received ONC201 PO. Mice were weighed twice a week, and 13 days post-irradiation all mice were euthanized. Organs were harvested from the mice and 600 μL of blood was collected via cardiac puncture for serum cytokine analysis. Organs were preserved in 10% formalin then embedded in paraffin and sectioned at a distance of 5 μm. […] TRAIL-/- female mice were also subjected to a survival study with a single whole-thorax radiation doses of 15 Gy or 18 Gy treated with the same regimen of TLY012 or control (n=2/radiation dose/treatment) (FIG. 3B). […]

TRAIL-/- mice [2] = experiment: Survival after whole-thorax irradiation, TRAIL-/- mice; format: in vivo, mouse
Protocol: Starting one hour before irradiation, mice were treated with either 10 mg/kg of TLY012 (D&D Pharmatech) by intraperitoneal (IP) injection or 100 mg/kg of ONC201/TIC10 (Chimerix/Oncoceutics) by oral gavage (PO) or a control gavage consisting of 20% Cremophor® EL (Sigma #238470) and 70% Dulbecco's phosphate buffered saline solution (Cytiva SH30264.02) per volume via PO (n=2/gender/treatment).

[3] = system: lung tissue in irradiated C57B1/6 mice; experiment: Immunohistochemistry of irradiated lung tissue; format: in vivo, mouse
From the text: Paraffin embedded sections of tissue were deparaffinized in xylene and rehydrated through graded ethanol solutions to phosphate-buffered saline (PBS). Heat-induced antigen retrieval (in 0.01 M citrate buffer; pH 6.0), endogenous peroxidase blocking (3% H202), and blocking were done using a standard protocol. […] Slides were developed with diaminobenzidine substrate (Vector Laboratories SK-4100) and counterstained with hematoxylin (Richard Allen Scientific). Slides were scanned (Olympus VS200) and representative brightfield images were taken and analyzed with OlyVIA software.

male TRAIL-/- mice = experiment: Masson's trichrome stain of lung 22 weeks post-radiation (late fibrosis); format: in vivo, mouse; conditions: 18 Gy, 10 mg/kg twice a week
From the text: In order to examine the late term effects of thoracic radiation, we designed an experiment where the single radiation dose was lowered to 18 Gy in male TRAIL-/- mice. […] At 22 weeks when mice reached criteria for euthanasia, they were sacrificed and lung tissue was harvested. Lung tissue slides were stained with Masson's trichrome and imaged at 10X on an Olympus VS200 slide scanner.

TRAIL-/- female mice = experiment: In vivo respiration-gated microCT imaging of lungs; design: species or system mouse; conditions: 15 Gy
Protocol: For μCT imaging, all mice were imaged in a SkyScan 1276 in vivo microCT scanner (Bruker, Kontich, Belgium) under isoflurane at 41 μm voxels with a 0.7° rotation step in supine position. […] Mice underwent μCT scans 13 days post irradiation. Image-based respiratory gating was used to sort images into gates based on specific time points of the breathing cycle to minimize motion artifact in the final reconstruction. For 3D reconstruction, Dataviewer version 1.5.4 (Bruker) was used to sort the CT images using the function “Listmode Scan” grouping the images in each bin where bin 0=maximum exhale and bin 3=maximum inhale (empty views <10%). Once the images were sorted, the listmode dataset was opened in NRecon software (Bruker) where the ROI undergoes 3D reconstruction. Reconstructed images were then analyzed in CTAn software (Bruker) where the volume of the lungs was calculated during max inhale and max exhale. The plugins in the custom processing page were used to create an ROI that separated the lungs from the rest of the image. 3D reconstructed images of the lung only were then opened in CTvol software (Bruker) where the color (red=69%, green=50%, blue=50%) and the opacity (7%) of the lung was changed.

female C57B1/6 mice = experiment: 48-hour post-radiation TLY012 treatment; format: in vivo, mouse; conditions: 20 Gy, 10 mg/kg twice a week, preliminary results
From the text: Mice were weighed twice a week, and then euthanized on day 13 post-irradiation. […] H&E-stained slides of the lungs were imaged at 20× magnification.

duodenum, liver or heart = experiment: H&E of duodenum, liver and heart of irradiated, treated mice; conditions: 20 Gy irradiated mice, 2 weeks treatment
Protocol: as §1

[4] = irradiated rescued versus irradiated control lung tissues
[5] = normal or inflamed lung, treated versus irradiated control

## TLY012: N-terminal PEGylated recombinant human TRAIL; PEGylated trimeric TRAIL formulation
TRAIL-/- mice [1]
  rescue from radiation pneumonitis: rescued
TRAIL-/- mice [2]; female TRAIL-/- mice, 15 Gy, FIG. 3B
  protection from lethality: protection from lethality
TRAIL-/- mice [2]; female TRAIL-/- mice, 18 Gy whole-thorax irradiation, FIG. 3B
  survival: 3 weeks
TRAIL-/- mice [2]; male TRAIL-/- mice, 18 Gy chest irradiation, 10 mg/kg, FIG. 3A
  survival / rescue from lethality: increased survival; also recorded: rescue from lethality
[3]; [4]
  NFkB: no differences
  proliferation: no differences
[3]; [5]
  DNA double strand break marker gamma-H2AX: no difference
  T-cell infiltration (CD3-epsilon): no difference
[3]; rescued lungs versus irradiated control
  collagen in lungs: less collagen
Male TRAIL-/- mice
  collagen deposition / fibrosis (Masson's trichrome): rescue; also recorded: decrease in collagen deposition; also recorded: less fibrosis
TRAIL-/- female mice; same opacity conditions, FIG. 7B
  3D reconstruction of lungs: clarity and visible airway space: overall clearer and have more visible airway space
TRAIL-/- female mice; twice weekly treatment, two weeks post irradiation, versus 15 Gy control, FIG. 7A
  lung expansion upon inhalation (μCT): expand more upon inhalation
Female C57B1/6 mice
  rescue when treatment starts 48 hours after irradiation: some rescue is possible
duodenum, liver or heart
  toxicities in duodenum, liver or heart: No obvious toxicities
